ChEMBL document CHEMBL1201862, “PubChem BioAssay data set” (2004)
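Tested at 5 concentrations; 48 h exposure; 96-well plates; endpoints linearly interpolated, else capped at highest concentration. At the GI50, growth is halved.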 The source made the active and inactive calls. Cut-off read from the data, not from the text of the source: active = GI50 up to about 1.1 µM and inactive = higher.

Experiments:
Test in all cases: NCI tumour cell line growth inhibition, 48 h
SW-620 = tested on: SW-620
LOX IMVI = tested on: LOX IMVI
EKVX = tested on: EKVX
NCI-H460 = tested on: NCI-H460
DMS-114 = tested on: DMS-114
HCT-15 = tested on: HCT-15
COLO 205 = tested on: COLO 205
MOLT-4 = tested on: MOLT-4
CAKI-1 = tested on: CAKI-1
OVCAR-4 = tested on: OVCAR-4
U-251 = tested on: U-251
SK-MEL-28 = tested on: SK-MEL-28
UACC-257 = tested on: UACC-257
KM12 = tested on: KM12
HCC 2998 = tested on: HCC 2998
MDA-MB-231 = tested on: MDA-MB-231
T47D = tested on: T47D
MCF7 = tested on: MCF7
BT-549 = tested on: BT-549
Hs-578T = tested on: Hs-578T

| SMILES | GI50 (SW-620) | GI50 (LOX IMVI) | GI50 (EKVX) | GI50 (NCI-H460) | GI50 (DMS-114) | GI50 (HCT-15) [µM] | GI50 (COLO 205) | GI50 (MOLT-4) | GI50 (CAKI-1) | GI50 (OVCAR-4) | GI50 (U-251) | GI50 (SK-MEL-28) | GI50 (UACC-257) | GI50 (KM12) | GI50 (HCC 2998) | GI50 (MDA-MB-231) | GI50 (T47D) | GI50 (MCF7) | GI50 (BT-549) | GI50 (Hs-578T) |
| --- | --- | --- | --- | --- | --- | --- | --- | --- | --- | --- | --- | --- | --- | --- | --- | --- | --- | --- | --- | --- |
| Oc1cc2cc(-c3ccccc3)[nH]c2c2ccccc12 | 34.4 µM (inactive) | 16.1 µM (inactive) | > 48.9 µM (inactive) | 24 µM (inactive) | 13.6 µM (inactive) | 27.1 | 10.4 µM (inactive) | 39.9 µM (inactive) | 18.5 µM (inactive) | 33.4 µM (inactive) | 32.1 µM (inactive) | 42.3 µM (inactive) | 16 µM (inactive) | 27.4 µM (inactive) | 49.5 µM (inactive) |  |  |  |  |  |
| CC(C)(C)C1CCC2(CC1)CCN(CCCN1CCOCC1)CC2 | > 42.8 µM (inactive) | 18.9 µM (inactive) | > 96.4 µM (inactive) | 39.7 µM (inactive) | 16.5 µM (inactive) | 22.3 | 16.3 µM (inactive) | 24.5 µM (inactive) | > 34.7 µM (inactive) | > 93.8 µM (inactive) | > 35.2 µM (inactive) | 16.9 µM (inactive) | 11.9 µM (inactive) | > 56 µM (inactive) | 16.9 µM (inactive) | > 100 µM (inactive) | 42.9 µM (inactive) | > 100 µM (inactive) | > 100 µM (inactive) | 35 µM (inactive) |
| COc1cc(NS(=O)(=O)c2ccc(C)cc2)c2nccnc2c1 | 37.8 µM (inactive) | 28 µM (inactive) | 39.8 µM (inactive) | 13 µM (inactive) | 14.6 µM (inactive) | 17.7 | 27 µM (inactive) | 12.4 µM (inactive) | 37.6 µM (inactive) | 39.6 µM (inactive) | 22.1 µM (inactive) | 30.7 µM (inactive) | 29.8 µM (inactive) | 32.6 µM (inactive) | 47.6 µM (inactive) |  |  |  |  |  |
| Nc1ccc(C(=O)NN2C(=O)C(Cl)C2c2ccc([N+](=O)[O-])cc2)cc1 (stereo not given) | 11.1 µM (inactive) | 1.74 µM (inactive) | 7.59 µM (inactive) | 6.21 µM (inactive) | 2.84 µM (inactive) | 8.05 | 14.8 µM (inactive) | 3.2 µM (inactive) | 20 µM (inactive) | 12.7 µM (inactive) | 2.13 µM (inactive) | 7.23 µM (inactive) | 14.7 µM (inactive) | 10.5 µM (inactive) | 9.08 µM (inactive) |  |  |  |  |  |
| N=C(N)N/N=C/c1c[nH]c2ccccc12 | > 100 µM (inactive) | > 100 µM (inactive) | > 100 µM (inactive) | > 100 µM (inactive) | 81.8 µM (inactive) | > 100 | > 100 µM (inactive) | > 100 µM (inactive) | > 100 µM (inactive) | > 100 µM (inactive) | > 100 µM (inactive) | > 100 µM (inactive) | > 100 µM (inactive) | > 100 µM (inactive) | > 100 µM (inactive) |  |  |  |  |  |
| CNCCCNc1c2ccccc2nc2cccc([N+](=O)[O-])c12 | 0.00321 µM (active) | 0.00604 µM (active) | 0.00809 µM (active) | 0.00047 µM (active) | 0.00221 µM (active) | 0.00957 | 0.0015 µM (active) | 0.00243 µM (active) | 0.00753 µM (active) | 0.00174 µM (active) | 0.00344 µM (active) | 0.0109 µM (active) | 0.0189 µM (active) | 0.0064 µM (active) | 0.00445 µM (active) | 0.00158 µM (active) | 0.00229 µM (active) | 0.00143 µM (active) | 0.0023 µM (active) | 0.00299 µM (active) |
| CN(C)c1ccc(C(C=C2c3ccccc3Sc3ccccc32)=C(C#N)C#N)cc1 | > 100 µM (inactive) | 48.4 µM (inactive) | > 100 µM (inactive) | 68.9 µM (inactive) | 56.4 µM (inactive) | > 100 | > 100 µM (inactive) | > 100 µM (inactive) | 65.9 µM (inactive) | 16 µM (inactive) | 37.6 µM (inactive) | > 100 µM (inactive) | > 100 µM (inactive) | > 100 µM (inactive) | > 100 µM (inactive) |  |  |  |  |  |
| COc1cc(/C=C\c2ccc(Br)cc2)cc(OC)c1OC | 0.000382 µM (active) | 0.000811 µM (active) | 0.00385 µM (active) | 0.01 µM (active) | 0.000986 µM (active) | 0.00333 | 0.00486 µM (active) | 0.000662 µM (active) | 0.01 µM (active) | 0.0622 µM (active) | 0.000463 µM (active) | 0.1 µM (active) | 0.000414 µM (active) | 0.000612 µM (active) | 0.0155 µM (active) |  |  |  |  |  |
